Assay results taken from patent US4025533A, “5-Bromo-5-nitro-2-alkylsubstituted-1,3-dioxane” (Eli Lilly and Company, priority 1976, dated 1977).
Converted amounts (≈) assume the structure as drawn.

Key:
[1] = test system: Streptococcus faecalis; assay: conventional tube dilution test (Table I); assay type: cell-based; settings: Enterococcus faecalis, 48 h, antibiotic Number 3 medium, two days at 37° C., read-out: Minimum Inhibitory Concentration
Description: (§1) The in vitro antimicrobial activities of Compounds A, B and C, 5-bromo-2-ethyl-5-nitro-1,3-dioxane (Compound D), 5-bromo-5-nitro-2-n-propyl-1,3-dioxane (Compound E), and 5-bromo-2-isopropyl-5-nitro-1,3-dioxane (Compound F) were determined concurrently against Pseudomonas aeruginosa, Staphylococcus aureus, Escherichia coli, and Streptococcus faecalis in a conventional tube dilution test. The medium used was antibiotic Number 3 [CFR 436.102(3)] and the concentration of organisms was 10^4 organisms per ml of medium, with each tube being inoculated with 0.1 ml of inoculum. The figures shown in Table I are the lowest concentrations in mcg of active compound/ml of medium where no growth occurred in the medium after two days' incubation at 37° C.

[2] = test system: Pseudomonas aeruginosa; assay: conventional tube dilution test (Table I); assay type: cell-based; settings: 48 h, antibiotic Number 3 medium, two days at 37° C., read-out: Minimum Inhibitory Concentration
Description: as §1

[3] = test system: Escherichia coli; assay: conventional tube dilution test (Table I); assay type: cell-based; settings: 48 h, antibiotic Number 3 medium, two days at 37° C., read-out: Minimum Inhibitory Concentration
Description: as §1

[4] = test system: Staphylococcus aureus; assay: conventional tube dilution test (Table I); assay type: cell-based; settings: 48 h, antibiotic Number 3 medium, two days at 37° C., read-out: Minimum Inhibitory Concentration
Description: as §1

[5] = chemical stability towards pH / alkali; assay type: physicochemical; settings: pH 5-9
[6] = test system: Streptococcus faecalis; assay: agar plate system (Table II); assay type: cell-based; settings: Enterococcus faecalis, antibiotic medium 1, 72 hours at 30° C., read-out: Minimum Inhibitory Concentration
Description: (§2) The antimicrobial activities of Compounds A, B, C, D, E and F were also determined in an agar plate system. The compounds were added to melted and cooled (50° C.) agar in twofold concentration increments from 50 mcg per ml of agar to 1.56 mcg per ml of agar. Antibiotic medium 1 [CFR 436.102(1)] was used for testing of Pseudomonas aeruginosa, Staphylococcus aureus, Escherichia coli, and Streptococcus faecalis, but antibiotic medium 22 [CFR 436.102(22)] was used for testing of Candida albicans and Aspergillus niger. Organism suspensions containing 10^6 organisms per ml were used as stock suspensions. Sterile cotton swabs were dipped in the suspensions and then streaked across the solidified agar. The figures shown in Table II were the lowest concentrations at which no growth occurred after 72 hours at 30° C. These values were interpreted as the minimum inhibitory concentration (MIC).

[7] = test system: Pseudomonas aeruginosa; assay: agar plate system (Table II); assay type: cell-based; settings: antibiotic medium 1, 72 hours at 30° C., read-out: Minimum Inhibitory Concentration
Description: as §2

[8] = test system: Escherichia coli; assay: agar plate system (Table II); assay type: cell-based; settings: antibiotic medium 1, 72 hours at 30° C., read-out: Minimum Inhibitory Concentration
Description: as §2

[9] = test system: Staphylococcus aureus; assay: agar plate system (Table II); assay type: cell-based; settings: antibiotic medium 1, 72 hours at 30° C., read-out: Minimum Inhibitory Concentration
Description: as §2

[10] = test system: Aspergillus niger; assay: agar plate system (Table II); assay type: cell-based; settings: antibiotic medium 22, 72 hours at 30° C., read-out: Minimum Inhibitory Concentration
Description: as §2

[11] = test system: Candida albicans; assay: agar plate system (Table II); assay type: cell-based; settings: antibiotic medium 22, 72 hours at 30° C., read-out: Minimum Inhibitory Concentration
Description: as §2

[12] = test system: Streptococcus faecalis; assay: in vitro agar plate determination (Table VII); assay type: cell-based; settings: Enterococcus faecalis; agar plates at 10, 25 and 50 mcg. per ml., 24 hours; read-out: Minimum Inhibitory Concentration
Description: (§3) The antimicrobial activities of […] (Compound G) were determined concurrently with 5-bromo-2-methyl-5-nitro-1,3-dioxane (Compound C) and 5-bromo-5-nitro-1,3-dioxane (Compound B) against the same six organisms shown in Table II. […] The tests were in vitro determinations utilizing agar plates containing the active compound at 10, 25 and 50 mcg. per ml. of agar. The organisms, at concentrations of 10^6 organisms per milliliter, were streaked on the solidified agar. The plates were incubated for 24 hours and the presence or absence of growth noted. The minimum inhibitory concentration (MIC) was determined as the lowest active compound concentration in the agar where no growth occurred.

[13] = test system: Pseudomonas aeruginosa; assay: in vitro agar plate determination (Table VII); assay type: cell-based; settings: agar plates at 10, 25 and 50 mcg. per ml., 24 hours, read-out: Minimum Inhibitory Concentration
Description: as §3

[14] = test system: Escherichia coli; assay: in vitro agar plate determination (Table VII); assay type: cell-based; settings: agar plates at 10, 25 and 50 mcg. per ml., 24 hours, read-out: Minimum Inhibitory Concentration
Description: as §3

[15] = test system: Staphylococcus aureus; assay: in vitro agar plate determination (Table VII); assay type: cell-based; settings: agar plates at 10, 25 and 50 mcg. per ml., 24 hours, read-out: Minimum Inhibitory Concentration
Description: as §3

[16] = test system: Aspergillus niger; assay: in vitro agar plate determination (Table VII); assay type: cell-based; settings: agar plates at 10, 25 and 50 mcg. per ml., 24 hours, read-out: Minimum Inhibitory Concentration
Description: as §3

[17] = test system: Candida albicans; assay: in vitro agar plate determination (Table VII); assay type: cell-based; settings: agar plates at 10, 25 and 50 mcg. per ml., 24 hours, read-out: Minimum Inhibitory Concentration
Description: as §3

Row | Structure (SMILES) | MIC [1] [µg/mL] | MIC [2] [µg/mL] | MIC [3] [µg/mL] | MIC [4] [µg/mL] | chemical stability at pH [5] | MIC [6] [µg/mL] | MIC [7] [µg/mL] | MIC [8] [µg/mL] | MIC [9] [µg/mL] | MIC [10] [µg/mL] | MIC [11] [µg/mL] | MIC [12] [µg/mL] | MIC [13] [µg/mL] | MIC [14] [µg/mL] | MIC [15] [µg/mL] | MIC [16] [µg/mL] | MIC [17] [µg/mL]
1 | CCC1OCC(Br)([N+](=O)[O-])CO1 (stereo not shown) [Compound D, 5-bromo-2-ethyl-5-nitro-1,3-dioxane] | 25 (≈ 104 µM) | 50 (≈ 208 µM) | 25 (≈ 104 µM) | 25 (≈ 104 µM) | chemically stable at pH's from 5-9 | 12.5 (≈ 52.1 µM) | 25 (≈ 104 µM) | 12.5 (≈ 52.1 µM) | 12.5 (≈ 52.1 µM) | 12.5 (≈ 52.1 µM) | 6.25 (≈ 26 µM) |  |  |  |  |  | 
2 | CCCC1OCC(Br)([N+](=O)[O-])CO1 (stereo not shown) [Compound E, 5-bromo-5-nitro-2-n-propyl-1,3-dioxane] | 25 (≈ 98.4 µM) | 50 (≈ 197 µM) | 25 (≈ 98.4 µM) | 50 (≈ 197 µM) |  | 12.5 (≈ 49.2 µM) | 25 (≈ 98.4 µM) | 12.5 (≈ 49.2 µM) | 12.5 (≈ 49.2 µM) | 6.25 (≈ 24.6 µM) | 3.1 (≈ 12.2 µM) |  |  |  |  |  | 
3 | CC(C)C1OCC(Br)([N+](=O)[O-])CO1 (stereo not shown) [Compound F, 5-bromo-2-isopropyl-5-nitro-1,3-dioxane] | 25 (≈ 98.4 µM) | 50 (≈ 197 µM) | 25 (≈ 98.4 µM) | 25 (≈ 98.4 µM) |  | 25 (≈ 98.4 µM) | 25 (≈ 98.4 µM) | 12.5 (≈ 49.2 µM) | 12.5 (≈ 49.2 µM) | 12.5 (≈ 49.2 µM) | 6.25 (≈ 24.6 µM) |  |  |  |  |  | 
4 | CC1(C)OCC(Br)([N+](=O)[O-])CO1 [Compound G, 5-bromo-2,2-dimethyl-5-nitro-1,3-dioxane] |  |  |  |  |  |  |  |  |  |  |  | 25 (≈ 104 µM) | 50 (≈ 208 µM) | 25 (≈ 104 µM) | 25 (≈ 104 µM) | 50 (≈ 208 µM) | 25 (≈ 104 µM)
